Data: article PMC12372887, “Mechanism and cellular actions of the potent AMPK inhibitor BAY-3827” (Science Advances, 2025)
Entries after “also recorded” stand apart in the source; their conditions may differ.

Key:
[1] = system: mouse primary hepatocytes; assay: Immunoblot of AMPK signaling in primary hepatocytes; format: cell-based
Description: (§1) Mouse hepatocytes were isolated by collagenase perfusion as previously described ([47]). Hepatocytes were seeded in medium Eagle-199 (MEM-199) (#41150, Thermo Fisher Scientific) containing penicillin G (100 U/ml), streptomycin (100 μg/ml), and 10% (v/v) fetal bovine serum (FBS). Hepatocytes were left for attachment (3 to 4 hours) and serum-starved overnight at 37°C with 5% CO2 in MEM-199 supplemented with penicillin G (100 U/ml), streptomycin (100 μg/ml), 10 nM insulin, and 100 nM dexamethasone. […] Cells were then harvested in 0.5 ml of phosphate-buffered saline (PBS), transferred into 1 ml of 40% KOH and 2 ml of methanol followed by 1-hour incubation at 80°C. Lipids were […] by acidifying the samples in 37% HCl and extracted with petroleum ether. Extracts were allowed to evaporate to dryness and then dissolved in Ultima Gold scintillation fluid for determination of [^14C]-acetate incorporation into lipids.
Following compound treatment, the cells were washed with room temperature PBS and lysed on ice with the addition of lysis buffer [50 mM tris-HCl (pH 7.5), 150 mM NaCl, 1 mM EDTA, 1 mM EGTA, 0.27 M sucrose, 1% w/v Triton X-100, 20 mM glycerol-2 phosphate disodium, 50 mM NaF, and 5 mM Na4P2O7.10 H2O] containing proteases and phosphatase inhibitors [0.5 mM phenylmethylsulfonyl fluoride (PMSF), 1 mM benzamidine HCl, leupeptin (1 μg/ml), pepstatin A (1 μg/ml), 1 μM microcystin-LR, 1 mM Na3VO4, and 1 mM DTT]. Lysates were centrifuged at 10,000g, 4°C for 10 min, and protein concentration of the supernatant was determined with the Pierce Bradford Protein Assay Kit (Thermo Fisher Scientific, #23200) and read on the Hidex Plate Reader (software version 0.5.64.0). Samples were prepared in Laemmli sample buffer (tris 200 mM, 8% SDS, EDTA 2 mM, and 40% glycerol) supplemented with 10% DTT and boiled for 5 min at 100°C. Ten micrograms of protein per sample was run on a Criterion tris-glycine polyacrylamide gel (Bio-Rad, #5678095) and transferred to a nitrocellulose membrane. For cell signaling experiments in HEK293 cells, the samples were run on a Criterion TGX stain-free precast gel (Bio-Rad, catalog no. 5678085) with transfer to a polyvinylidene difluoride membrane performed in Bio-Rad Criterion blotter (#1704071) using tris-glycine transfer buffer (Bio-Rad, #1610734) following the manufacturer’s instructions. […]

CaMKK2 = biological target: T1, CaMKK2 (Homo sapiens, UniProt Q96RR4); assay: Cell-free CaMKK2 kinase assay (CaMKKtide); format: biochemical; conditions: increasing concentrations, 0 to 1 μM
T1 construct: made in house; host or cells: HEK293 (transient transfection, anti-FLAG immunoprecipitate)
Description: Heterotrimeric human AMPK FLAG- α1β1γ1, FLAG- α2β1γ1, and FLAG- α2β2γ1, as well as human FLAG-CaMKK2 and FLAG-ULK1, were produced in mammalian HEK293 cells as described ([66], [67]). For AMPK expression, the cells were triply transfected at 60% confluency using FuGene HD (Roche Applied Science) and 1 μg of pcDNA3 plasmid expression constructs for AMPK Flag-α1, β1-Myc, β2-Myc, and HA-γ1. For CaMKK2 expression, the cells were transfected with 1 μg of pcDNA3 Flag-CaMKK2 plasmid. For ULK1 expression, the cells were transfected with […] of pcDNA3 FLAG-ULK1 plasmid. After 48 hours, the transfected cells were harvested by rinsing with ice-cold PBS, followed by rapid lysis using 500 μl of lysis buffer. AMPK, CaMKK2, and ULK1 kinase activities were determined by phosphorylation of synthetic peptide substrates: SAMS (HMRSAMSGLHLVKRR), CaMKKtide ([…]), and S108tide. (KLPLTRSHNNFVARRR), respectively. Briefly, recombinant AMPK, CaMKK2, or ULK1 were immunoprecipitated from 10 μg of transfected cultured cell lysate using 10 μl of anti-FLAG M2 agarose beads [50% (v/v)] […] Radioactivity was quantified by liquid scintillation counting. […]

[2] = system: AMPKα1α2+/+ control primary hepatocytes; assay: Lipogenesis assay ([14C]-acetate incorporation into fatty acids); format: cell-based, mouse
Description: as §1

[3] = in the presence of MK-8722 (10 μM)

T1 sequence (Q96RR4 whole entry): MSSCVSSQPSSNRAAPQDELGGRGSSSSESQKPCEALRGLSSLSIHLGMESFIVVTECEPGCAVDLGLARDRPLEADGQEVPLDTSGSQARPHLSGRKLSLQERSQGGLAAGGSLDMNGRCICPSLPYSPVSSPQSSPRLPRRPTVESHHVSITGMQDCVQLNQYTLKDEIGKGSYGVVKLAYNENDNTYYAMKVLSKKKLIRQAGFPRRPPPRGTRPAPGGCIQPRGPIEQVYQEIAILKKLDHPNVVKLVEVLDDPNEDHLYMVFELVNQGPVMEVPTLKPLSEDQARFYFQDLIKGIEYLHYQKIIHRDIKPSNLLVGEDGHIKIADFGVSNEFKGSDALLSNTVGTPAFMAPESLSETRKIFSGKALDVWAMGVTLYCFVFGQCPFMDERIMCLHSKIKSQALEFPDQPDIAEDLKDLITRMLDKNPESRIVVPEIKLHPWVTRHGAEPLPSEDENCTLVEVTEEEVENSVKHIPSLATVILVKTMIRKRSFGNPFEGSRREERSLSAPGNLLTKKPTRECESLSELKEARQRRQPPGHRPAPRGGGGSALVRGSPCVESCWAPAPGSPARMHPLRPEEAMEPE

Row | Compound | concentration giving full inhibition of ACC1 phosphorylation [1, 3] | concentration giving full inhibition of Raptor phosphorylation [1, 3] | increased pThr172AMPK levels ([1]; with or without MK-8722 (10 μM)) | inhibitory effect on kinase activity (CaMKK2) | rescue of MK-8722–mediated inhibition of lipogenesis ([2]; 2.5 and 5 μM, + MK-8722 (10 μM)) | stimulation of lipogenesis ([2]; compound alone, 2.5 and 5 μM) | levels of pACC1, pRaptor, or pAMPK ([1]; 5 μM, with or without MK-8722) | effect on lipogenesis ([2]; 5 μM, vehicle- and MK-8722–treated conditions)
1 | CCc1ccccc1C(=O)Nc1n[nH]c2c(C)c(F)c(C3C(C#N)=C(C)N(C)C(C)=C3C#N)cc12 [BAY-3827, N-[5-(3,5-dicyano-1,2,6-trimethyl-4H-pyridin-4-yl)-6-fluoro-7-methyl-1H-indazol-3-yl]-2-ethylbenzamide] | 5 µM | 2.5 µM | only significant under MK-8722–treated conditions at 5 μM | no inhibitory effect | dose-dependently rescued; also recorded: fully reversing | 70 to 90% |  | 
2 | CC1=C(C#N)C(c2ccc3c(c2)c(NC(=O)c2ccccc2C)nn3C)C(C#N)=C(C)N1 [BAY-974, N-[5-(3,5-dicyano-2,6-dimethyl-1,4-dihydropyridin-4-yl)-1-methylindazol-3-yl]-2-methylbenzamide] |  |  |  | no inhibitory effect |  |  | no effect | no effect
